The source of these data is patent publication US8293979B2, “Weed controller metabolism proteins, genes, thereof and use of the same” (Sumitomo Chemical Company, Limited, priority 2001, dated 2012).

Data set [1] relates to Barnyardgrass. Put plainly: Herbicidal activity test, foliage treatment. Details: key: 0: situations in which the condition of sprouting or vegetation at the time of examination of the plant utilized for the test was compared with and showed totally or substantially no difference with that of the untreated application; 10: situations in which the plant completely withered or the sprouting or vegetation was completely suppressed. The following applies: sprayed onto the foliage of plants cultivated 10 days, investigated after 16 days in a greenhouse. Type of data set: in vivo, Echinochloa crus-galli. The procedure: (§1) Soil was packed into a round plastic pot having a diameter of 10 cm and depth of 10 cm. Barnyardgrass, Blackgrass, Ivyleaf morningglory were seeded and cultivated in a greenhouse for 10 days. Five (5) parts of the test compound, 6 parts of sorpol3005X (Toho Chemical Company) and 89 parts of xylene were well mixed to produce an emulsion. A certain amount thereof was diluted with water containing 0.1% (v/v) of a sticking agent at a proportion of 1000 L for 1 hectare and was spread uniformly with a spray-gun onto the all sides of the foliage from above the plant cultivated in the above pot. After cultivating the plants for 16 days in a greenhouse, the herbicidal activity of the test compound was investigated.
(§2) In the above Tables 3 and 4, the strength of the herbicidal activity is shown stepwise as 0, 1, 2, 3, 4, 5, 6, 7, 8, 9, and 10.

The subject of data set [2] is Blackgrass. The data set is described as follows: Herbicidal activity test, soil surface treatment. The following applies: 500 g/ha, sprayed onto the surface of the soil after seeding, investigated after 19 days in a greenhouse. Details: key: 0: situations in which the condition of sprouting or vegetation at the time of examination of the plant utilized for the test was compared with and showed totally or substantially no difference with that of the untreated application; 10: situations in which the plant completely withered or the sprouting or vegetation was completely suppressed. It counts as in vivo, Alopercurus myosuroides. The procedure: (§3) Soil was packed into a round plastic pot having a diameter of 10 cm and depth of 10 cm. Barnyardgrass, Blackgrass, Ivyleaf morningglory were seeded. Five (5) parts of the test compound, 6 parts of sorpol3005X (Toho Chemical Company) and 89 parts of xylene were well mixed to produce an emulsion. A certain amount thereof was diluted with water containing 0.1% (v/v) of a sticking agent at a proportion of 1000 L for 1 hectare and was spread uniformly with a spray-gun onto the surface of the soil. After cultivating the plants for 19 days in a greenhouse, the herbicidal activity was investigated.
as §2

Data set [3] concerns Blackgrass. Put plainly: Herbicidal activity test, foliage treatment. It counts as in vivo, Alopercurus myosuroides. Details: key: 0: situations in which the condition of sprouting or vegetation at the time of examination of the plant utilized for the test was compared with and showed totally or substantially no difference with that of the untreated application; 10: situations in which the plant completely withered or the sprouting or vegetation was completely suppressed. The conditions noted are these: sprayed onto the foliage of plants cultivated 10 days, investigated after 16 days in a greenhouse. The protocol:
as §1, §2

In data set [4] the test system is Ivyleaf morningglory. Put plainly: Herbicidal activity test, foliage treatment. Type of data set: in vivo, Ipomoea hederacea. The following applies: sprayed onto the foliage of plants cultivated 10 days, investigated after 16 days in a greenhouse. Details: key: 0: situations in which the condition of sprouting or vegetation at the time of examination of the plant utilized for the test was compared with and showed totally or substantially no difference with that of the untreated application; 10: situations in which the plant completely withered or the sprouting or vegetation was completely suppressed. The protocol: as §1, §2

Data set [5] deals with Ivyleaf morningglory. Put plainly: Herbicidal activity test, soil surface treatment. The following applies: 500 g/ha, sprayed onto the surface of the soil after seeding, investigated after 19 days in a greenhouse. Also on record: key: 0: situations in which the condition of sprouting or vegetation at the time of examination of the plant utilized for the test was compared with and showed totally or substantially no difference with that of the untreated application; 10: situations in which the plant completely withered or the sprouting or vegetation was completely suppressed. It counts as in vivo, Ipomoea hederacea. The procedure: as §3, §2

The test system of data set [6] is Barnyardgrass. Put plainly: Herbicidal activity test, soil surface treatment. Type of data set: in vivo, Echinochloa crus-galli. The following applies: 500 g/ha, sprayed onto the surface of the soil after seeding, investigated after 19 days in a greenhouse. Also on record: key: 0: situations in which the condition of sprouting or vegetation at the time of examination of the plant utilized for the test was compared with and showed totally or substantially no difference with that of the untreated application; 10: situations in which the plant completely withered or the sprouting or vegetation was completely suppressed. The protocol: as §3, §2

Data set [7] concerns present invention protein (A11). Put plainly: Metabolism of compound (X) by the present invention protein (A11), E. coli JM109/pKSN849AF cell suspension. Type of data set: in vitro ADME, Streptomyces nogalator IFO13445. The following applies: compound at 25 ppm, shaking at 30° C., fractioned at 0 hours and 4 days, ethyl acetate layer, HPLC. The protocol: Each of E. coli JM109/pKSN849AF and E. coli JM109/pKSN2 was cultured overnight at 37° C. in 3 ml of TB culture containing 50 μg/ml of ampicillin. A milliliter (1 ml) of the obtained culture mediums was transferred to 100 ml of TB medium containing 50 μg/ml of ampicillin and cultured at 26° C. When OD660 reached about 0.5, 5-aminolevulinic acid was added to the final concentration of 500 μM, and the culturing was continued. Thirty (30) minutes thereafter, IPTG was added to a final concentration of 1 mM, and there was further culturing for 18 hours.
The cells were recovered from the culture medium, washed with 0.1M tris-HCl buffer (pH7.5) and suspended in 10 ml of 0.1M Tris-HCl buffer containing 1% glucose. […] The obtained ethyl acetate layers were analyzed on a HPLC under reaction condition 1. Compared to the concentration of compound (X) detected from the ethyl acetate layer prepared from the JM109/pKSN2 cell suspension, the concentration of compound (X) detected from the ethyl acetate layer prepared from the JM109/pKSN849AF cell suspension was lower. Further 3 peaks, which were not detected from the ethyl acetate layer prepared from the JM109/pKSN2 cell suspension, were detected from the ethyl acetate layer prepared from the JM109/pKSN849AF cell suspension. […]

Data set [8] deals with present invention protein (A1). Type of data set: in vitro ADME, Streptomyces phaeochromogenes IFO12898. The following applies: E. coli JM109/pKSN657F cell suspension, compound at 100 ppm, shaking at 30° C., ethyl acetate layer, HPLC. The procedure: E. coli JM109/pKSN657F was cultured overnight at 37° C. in 3 ml of TB medium containing 50 μg/ml of ampicillin. A milliliter (1 ml) of the obtained culture medium was transferred to 100 ml of TB medium containing 50 μg/ml of ampicillin and cultured at 26° C. When OD660 reached about 0.5, 5-aminolevulinic acid was added to the final concentration of 500 μM, and the culturing was continued. Thirty (30) minutes thereafter, IPTG was added to a final concentration of 1 mM, and there was further culturing for 20 hours.
The cells were recovered from the culture medium, washed with 0.1M tris-HCl buffer (pH7.5) and suspended in 10 ml of 0.1M Tris-HCl buffer containing 1% glucose. Compound (VI) was added to the obtained cell suspension to a final concentration of 100 ppm and that was incubated with shaking at 30° C. At each of 0 hours after and 1 day after the start of shaking, 2 ml of the cell suspension were fractioned. Fifty microliters (50 μl) of 2N HCl were added to each and those were extracted with 2 ml of ethyl acetate. The obtained ethyl acetate layers were analyzed on a HPLC under reaction condition 1. Compared to the concentration of compound (VI) detected from the ethyl acetate layer prepared from the cell suspension at 0 hours after the start of shaking, the concentration of compound (VI) detected from the ethyl acetate later prepared from the cell suspension at 1 day after the start of shaking was lower. Further a peak, which was not detected from the ethyl acetate layer prepared from the cell suspension at 0 hours after the start of shaking, was detected from the ethyl acetate layer prepared from the cell suspension at 1 day after the start of shaking Mass spectrometry of the compound contained in said peak was conducted. […]
Other than utilizing compound (VIII) instead of compound (VI), there was conducted in accordance with the method described in Example 41(6), a culturing of E. coli JM109/pKSN657F, preparation of the cell suspension solution, incubation with shaking of the cell suspension solution to which compound (VIII) was added, reagent preparation from the cell suspension solution and HPLC analysis of the reagents. Compared to the concentration of compound (VIII) detected from the ethyl acetate layer prepared from the cell suspension at 0 hours after the start of shaking, the concentration of compound (VIII) detected from the ethyl acetate layer prepared from the cell suspension at 1 day after the start of shaking was lower. Further two peaks, which were not detected from the ethyl acetate layer prepared from the cell suspension at 0 hours after the start of shaking, were detected from the ethyl acetate layer prepared from the cell suspension at 1 day after the start of shaking Mass spectrometry of the compounds contained in said peaks were conducted. […]

On to `C[C@@H](Oc1cc(-n2c(=O)cc(C(F)(F)F)[nH]c2=O)c(F)cc1Cl)C(=O)O` [compound (III)], for which the “Herbicidal Activity Barnyardgrass” value with Barnyardgrass [1] (125 g/ha), in the data set on Barnyardgrass [1] (500 g/ha) and with Barnyardgrass [6] was 0 in each case. In addition, the “Herbicidal Activity Blackgrass” value in the data set with Blackgrass [2], with Blackgrass [3] (125 g/ha) and with Blackgrass [3] (500 g/ha) was 0 throughout. For the same compound, the “Herbicidal Activity Ivyleaf Morningglory” value in the data set on Ivyleaf morningglory [4] (125 g/ha), in the data set on Ivyleaf morningglory [4] (500 g/ha) and with Ivyleaf morningglory [5] was 0 each time.
In the case of `C=CCOC(=O)C(C)(C)OC(=O)c1cc(-n2c(=O)cc(C(F)(F)F)n(C)c2=O)ccc1Cl` [compound (X)], the “concentration of the compound detected from the JM109/pKSN849AF cell suspension compared to the JM109/pKSN2 cell suspension” value in data set [7] is given as “lower”. In addition, the “concentration of the compound detected from the cell suspension at 1 day compared to 0 hours after the start of shaking” value in data set [8] is reported as “lower”.
